Results on four molecules are retold here after EP0408749A1, “DERIVATIVES OF 3,18-DIHYDROXY-9,13-EPOXYLABDANE, METHOD OF OBTAINING THEM AND A HEMOSTATIC PHARMACEUTICAL PREPARATION BASED THEREON” (TASHKENTSKY GOSUDARSTVENNY UNIVERSITET IMENI V.I. LENINA, priority 1988, dated 1990).

Structures can show the parent of a compound that is named as a salt.

The subject of one data set is local blood hemorrhage. The experiment in a line: Local blood hemorrhage, local application. It counts as in vivo. The following applies: local effect, concentration of 0.5%. From the text: The study of the effect provided by the compound according to the present invention on the local blood hemorrhage has shown that the local effect of the compound in tne concentration of 0.5% lowers the flood loss by 83% and the hemorrhage duration is reduced by 60%.

A further data set concerns white non-descipt mice. The experiment in a line: Acute toxicity, intraperitoneal. It counts as in vivo. On the procedure: The compound according to the present invention, i.e. 3,16,18-trihydroxy-3,13-epoxylabdan-15-ic acid sodium salt trihydrate was tested for an acute toxicity.
The subject of another data set is rats, dogs. The following applies: in vivo.
Data set [1] has as its system blood coagulation. The experiment in a line: Thromboelastogram in vitro. Particulars: for Time of the reaction of blood coagulation, R / Coagulation index, C: in vitro, experiment (O). It counts as biochemical. The procedure: (§1) The pharmacological studies of the hemostatic activity of the compounds according to the present invention was conducted in vivo and in vitro with the use of biochemical tests and by means of a thromboelasto- graph.
The effect of the compound according to the present invention , viz. 3,1,18-trihydroxy-9,13-epofil- abdan-15-ic acid sodium salt trihydrate on hemostasis was studied in vitro with the use of a thromboelastogram.

Another data set concerns thrombocytes. The experiment in a line: Effect on thrombocytes. An excerpt:
Furthermore, the compound according to the present invention increases the number of thrombocytes and activates adhesion and aggregation of thrombocytes.

The subject of a further data set is heparin. The experiment in a line: Effect on heparin.
In data set [2] the test system is blood coagulation system. The experiment in a line: Biochemical tests of the blood coagulation system in dogs, intravenous. It counts as in vivo. Particulars: dog, 25 mg/kg intravenously; for Time of blood coagulation / Tolerance of the plasma to heparin / Trombin time / Time of plasma recalcification: mean M; for Time of blood coagulation: 10 animals, initial 5.1; for Tolerance of the plasma to heparin: initial 6.8; for Trombin time: initial 17.0; for Time of plasma recalcification: initial 117.0. The procedure: as §1
(§2) The blood for examination was taken from an opened dog's thigh vein prior to administration of the compound and 10, 30, 60, 90 and 120 min thereafter. For the cuvette of the thromboelasto- graph the blood was taken in the amount of 0.36 ml, while for biochemical tests -up to 10 ml (as the con- servant use was made of a 1.34% solution of sodium oxalate which was added in the ratio of 1:9).
In another series of experiments the effect of the compound according to the present invention was studied in biochemical tests.

In data set [3] the test system is blood coagulation. The experiment in a line: Thromboelastogram in dogs after administration of the compound. It counts as in vivo. The following applies: 10 mg/kg.
The test system of data set [4] is blood coagulation. Described as above. It counts as in vivo. The following applies: dog, 25 mg/kg; for Time of reaction of blood coagulation, R / Time of the clot formation K: arithmetic mean M; for Time of reaction of blood coagulation, R: 10 animals, initial 23.0; for Time of the clot formation K: initial 20.0. The procedure: as §1, §2
The next series of experiments - administration of the compound according to the present invention in the dose of 25 mg/kg of the animals' bodymass.

The next data set relates to mice. Nature of the data set: LD50, subcutaneous 20% oily solution. It counts as in vivo. Particulars: subcutaneously (hypodermal). The procedure:
The LD50 was determined on mice (a group of 30 animals with. a bodymass of 20-21 g). The mice were administered with 3,18-dihydroxy-9,13-epoxylabdan-15,16-olide subcutaneously (a 20% oily solution). In the case of this manner of administration (i.e. hypodermal one) the LD50 was equal to more than 2,000 mg/kg of the animal's bodymass.

Data set [5] deals with blood coagulation. The experiment in a line: Blood coagulation in dogs after hypodermal administration of a 20% oily solution. Particulars: 50 mg/kg hypodermally; for Time of blood coagulation / Fibrinolytic activity of blood / Time of plasma recalcification / Tolerance of plasma to heparin / Fibrinogen: mean M; for Time of blood coagulation: prior 318.0; for Fibrinolytic activity of blood: prior 41.0; for Time of plasma recalcification: prior 106.0; for Tolerance of plasma to heparin: prior 214.0; for Fibrinogen: prior 435.0. It counts as in vivo. On the procedure:
as §1
[…] For the cuvette of the thromboelasto- graph the blood was taken in the amount of 0.36 ml, while for biochemical tests -up to 10 ml (as the con- servant use was made of a 1.34% solution of sodium oxalate which was added in the ratio of 1:9).
The compound according to the invention , viz. ? 3,18-dihydroxy-9,13-epoxylabdan-15-16-olide was administered to dogs (a group of 5 animals) in the dose of 50 mg/kg of the animal's bodymass hypodermally as a 20% oily solution.

Data set [6] relates to blood coagulation system. The experiment in a line: Comparative clinical study of hemostatic effect against dicynone. It counts as in vivo. The following applies: twenty post-operation patients, 20 minutes after introduction, p < 0.05. On the procedure:
The pharmaceutical preparation according to the present invention and dicynone were subjected to a comparative study for their hemostatic effect. Twenty post-operation patients (cardiorevivification department). The preparations were administered in the amount of […]. For the determination of the hemostatic effect determined by the functional state of the blood coagulation system the following characteristics were studied: thromboelastogram, the time of recalcification of citrate plasma and the plasma tolerance towards heparin. 20 minutes after the introduction of dicynone the parameter of the time of reaction of the rate of formation of thromboplastin was decreased by 32%, after administration of the preparation according to the present invention - by 75%, the time of coagulation was reduced, respectively, by 2'1 and 43%, t,ie time of recalcification of plasma decreased by 43 and 61% respectively, tolerance of plasma to heparin increased by 36 and 52%, respectively (at an error of p < 0.05).

The next data set concerns hemostatic effect. The following applies: after administration to patients; cited from earlier work.
Where [7] appears, read: 30 minutes after administration.
Setting [8] is: 60 minutes after administration.
Where [9] appears, read: 90 minutes after administration.
The mark [10] stands for this setting: 120 minutes after administration.

For “3,16,18-trihydroxy-9,13-epoxylabdan-15-ic acid sodium salt trihydrate”, the “hemorrhage duration is reduced by” value in the data set on local blood hemorrhage came out at 60%. Further, the “lowers the flood loss by” value in the data set with local blood hemorrhage came to 83%. Besides, the LD50 result in the data set with white non-descipt mice (intraperitoneal administration) is recorded as “over 2,000 mg/kg of the animal's bodymass”. Besides, in the data set on white non-descipt mice (intraperitoneal, 1,000 and 2,000 mg/kg), the “death of the animals” value is on record as “no death”. The local irritation effect result in the data set with rats, dogs is reported as “neither provided any local irritation effect”. In addition, the “Time of the reaction of blood coagulation, R” value came to 7.0 mm in the data set on blood coagulation [1] (0.01 mg, control 26.0); 8.0 mm with blood coagulation [1] (0.1 mg, control 11.0); 32.0 mm in the data set with blood coagulation [1] (5 mg, control 18.0). In addition, the “Coagulation index, C” value in the data set with blood coagulation [1] (0.1 mg, control 19.6) amounted to 20.8 mm; in the data set on blood coagulation [1] (1 mg, control 23.0), 8.0 mm; in the data set with blood coagulation [1] (5 mg, control 19.0), 3.4 mm. Moreover, in the data set on blood coagulation [1] (in vitro, 0.01, 0.1, 0.2 and 1.0 mg per 0.26 ml of blood), the “parameter R (the time of reaction of blood coagulation)” value is given as “substantially reduces”. Further, in the data set on thrombocytes, the “adhesion and aggregation of thrombocytes” value is “activates”. Besides, the number of thrombocytes entry in the data set with thrombocytes is given as “increases”. The effect on heparin result with heparin is on record as “did not prevent the effect of heparin but weakened it”. The “blood coagulation time is shortened by” value with blood coagulation system [2] is recorded as 35-40%. For the same molecule, the “thrombin time is reduced by” value in the data set on blood coagulation system [2] is given as 30-35%. Besides, the “time of plasma recalcification shortened by” value in the data set with blood coagulation system [2] is given as 33-39%. Also, in the data set with blood coagulation system [2], the “tolerance of plasma to heparin is increased by” value is recorded as 30-40%. Also, the “Time of blood coagulation” value with blood coagulation system [2] (setting [7]) was 3.9 min; in the data set on blood coagulation system [2] (setting [8]), 3.7 min; with blood coagulation system [2] (setting [9]) it was 3.0 min; in the data set on blood coagulation system [2] (setting [10]) it was 3.4 min. The “Tolerance of the plasma to heparin” value was 4,8 min with blood coagulation system [2] (setting [7]), 4.6 min in the data set on blood coagulation system [2] (setting [8]), 4.3 min with blood coagulation system [2] (setting [9]) and 4.1 min in the data set with blood coagulation system [2] (setting [10]). Moreover, the Trombin time turned out to be 12.0 s in the data set with blood coagulation system [2] (setting [7]), 12.0 s with blood coagulation system [2] (setting [8]), 11.0 s with blood coagulation system [2] (setting [9]) and 11.0 s with blood coagulation system [2] (setting [10]). Also, the “Time of plasma recalcification” value in the data set on blood coagulation system [2] (setting [7]) came out at 78.0 s; with blood coagulation system [2] (setting [8]), 79.0 s; in the data set with blood coagulation system [2] (setting [9]) it was 74.0 s; with blood coagulation system [2] (setting [10]), 71.0 s. Moreover, the “process of blood coagulation” value with blood coagulation [3] is listed as “promoted”. The “coagulation time K is reduced by” value in the data set with blood coagulation [4] is on record as 40-55%. The “factor C (coagulation index) increased by” value with blood coagulation [4] is reported as 71-133%. The “Time of reaction of blood coagulation, R” value was 10.0 mm with blood coagulation [4] (column 2 (30 min by the note to Table 3)), 12.0 mm in the data set on blood coagulation [4] (column 3 (60 min by the note to Table 3)), 9.0 mm in the data set on blood coagulation [4] (column 4 (90 min by the note to Table 3)) and 11.0 mm with blood coagulation [4] (column 5 (120 min by the note to Table 3)). For the same molecule, the “Time of the clot formation K” value with blood coagulation [4] (fifth value column (120 min by the note to Table 3)) is on record as 9.0 mm; with blood coagulation [4] (fourth value column (90 min by the note to Table 3)) it was 10.0 mm; with blood coagulation [4] (second value column (30 min by the note to Table 3)), 12.0 mm; in the data set on blood coagulation [4] (third value column (60 min by the note to Table 3)), 11.0 mm.

Consider “3,18-dihydroxy-9,13-epoxylabdan-15,16-olide”, for which the LD50 entry with mice is recorded as “more than 2,000 mg/kg of the animal's bodymass”. Further, in the data set on blood coagulation [5] (20% oily solution), the “blood coagulation time decreases by” value worked out at 51%, the “time of recalcification decreases by” value amounted to 32% and the “tolerance of the plasma to heparin was increased by” value was determined as 37%. Besides, in the data set on blood coagulation [5] (20% oily solution, 60 min after administration), the “Time of blood coagulation” value was found to be 269.0 s. Further, in the data set with blood coagulation [5] (20% oily solution, 120 min after administration), the “Time of blood coagulation” value is 218.0 s. Besides, in the data set with blood coagulation [5] (20% oily solution, 180 min after administration), the “Time of blood coagulation” value amounted to 159.0 s. In addition, in the data set with blood coagulation [5] (60 min after administration), the “Fibrinolytic activity of blood” value is 53.0%, the “Time of plasma recalcification” value came out at 102.0 s, the “Tolerance of plasma to heparin” value came out at 192.0 s and the Fibrinogen was found to be 387.0 mg%. In the data set with blood coagulation [5] (120 min after administration), the “Fibrinolytic activity of blood” value turned out to be 54.0%, the “Time of plasma recalcification” value worked out at 84.0 s, the “Tolerance of plasma to heparin” value stood at 138.0 s and the Fibrinogen is 361.0 mg%. Besides, in the data set with blood coagulation [5] (180 min after administration), the “Fibrinolytic activity of blood” value was 43.0%, the “Time of plasma recalcification” value amounted to 72.0 s, the “Tolerance of plasma to heparin” value is 135.0 s and the Fibrinogen was found to be 293.0 mg%.

Consider `O=S(=O)(O)c1cc(O)ccc1O` [dicynone, 2,5-dihydroxybenzenesulphonate-j-diethylammonium salt], for which, in the data set with blood coagulation system [6], the “time of recalcification of plasma decreased by” value is 43% and the “tolerance of plasma to heparin increased by” value was determined as 36%. The “time of reaction of the rate of formation of thromboplastin decreased by” value in the data set on blood coagulation system [6] (amount of 75 g as printed) was 32%.

For the molecule `CC1(S(=O)(=O)[O-])CC(=O)c2ccccc2C1=O.[Na+]` (stereo not drawn) [sodium 2,3-dihydro-2-methyl-1,4-naphthoquinone-2-sulphonate], the “hemostatic effect is noted within” value in the data set with hemostatic effect was 12 to 18 h.
